In a melting point compilation (Tetko et al.; mined from patent text by program, amines drawn as free bases though some values may be those of a salt):
Starred links: 1 amine or outer side, 2 acyl side, 3 side chain; linkers in the order of their positions; H or OH if unused. Non-standard residues stand in square brackets, D forms with d. Residues, ends and D or L forms follow the SMILES beside them. *: point of attachment. Hyp = O=C(O)[C@@H]1C[C@@H](O)CN1; βNA = c1ccc2cc(N*)ccc2c1; 2Abz = Nc1ccccc1C(=O)O; CO = O=C([*:1])[*:2]; Bn = c1ccc(C*)cc1

Row | Structure (SMILES) | melting point [°C]
1 | CC(C)OC(=O)c1cnc(C(=O)O)cn1 | 149 to 152
2 | Cc1cc(-c2ccc(C(F)(F)F)cc2)cn2c(-c3nc(-c4ccnc(N)c4)no3)cnc12 | 264
3 | CCc1cn(C2OC(CNC(=O)C(C)Oc3cc(OC)c(Br)cc3Br)C(O)C2F)c(=O)[nH]c1=O (stereo unspecified) | 223 to 224
4 | CCON=C(CC)C1=C(O)CC(c2ccc(Oc3ccc(S(C)(=O)=O)cc3)cc2)CC1=O (stereo unspecified) | 155 to 157
5 | Cc1nc2c(cc1Cl)C(=O)OC2=O | 140 to 141
6 | Cc1cc(Cl)nnc1-c1cccc([N+](=O)[O-])c1 | 169 to 171
7 | CCC1(CC)C(=N)N(c2ccc(C#N)c(C(F)(F)F)c2)C(=S)N1C | 167 to 168
8 | CCOC(=O)c1cc(S)cc(S)c1 | 49 to 51
9 | CCc1c(C(=O)c2ccc(OC)cc2)c2cccc3c2n1C(CN1CCOCC1)CO3 (stereo unspecified) | 186 to 187
10 | O=C(N1Cc2cncnc2-c2ccc(Cl)cc2C1c1ccccc1Cl)C(F)(F)F (stereo unspecified) | 178 to 179
11 | Cc1ccc2c(c1)c(O)c(C(=O)NC1CCCCC1)c(=O)n2Cc1ccccc1 | 87
12 | Cc1ccc(-c2ncn(-c3ccc(OC(F)(F)C(F)(F)F)cc3)n2)cc1 | 130 to 132
13 | O=C(CCCOc1ccc2nc3[nH]c(=O)[nH]c3cc2c1)NC1CCCCCC1 | 314 to 316
14 | CCOC(=O)C(=CNC1CC1)C(=O)c1cc(F)c(Cl)c(C#N)c1Cl | 65 to 67
15 | CC(C)n1nc(-c2cnc(N)nc2-c2ccncc2)ccc1=O | 219
16 | CC(=O)Nc1ccc(F)c(F)c1F | 87 to 88
17 | CNC(=S)Nc1ccc2c(c1)C(=O)NC(=O)C2(C)C | 206 to 207
18 | O=C(O)Cn1c(=O)c(=O)[nH]c2cc(Br)c(Br)cc21 | > 300
19 | COc1ccc(S(=O)(=O)N2CCc3cccc(-c4ccc([N+](=O)[O-])cc4)c32)cc1 | 177 to 178
20 | CC[C@@H](C)NC1=NS(=O)(=O)c2sc(Cl)cc2N1 | 215 to 220
21 | NS(=O)(=O)c1cccc(S(=O)(=O)NC2CCC2)c1 | 140 to 143
22 | N#Cc1ccsc1C1=CC(=O)Nc2cc(-c3ccccc3F)c(O)cc2N1 | 242
23 | CS(=O)(=O)On1c(C(F)(F)F)nc2ncc(Cl)cc21 | 137
24 | O=c1[nH]c2ncc(-c3ccc(-c4nc5ccccc5[nH]4)cc3)nc2n1CC1CCOCC1 | > 300
25 | CN(CC#N)S(=O)(=O)c1cc(-n2c(=O)cc(C(F)(F)F)n(C)c2=O)c(F)cc1Cl | 155 to 157

Row | Structure (SMILES) | melting point [°C]
26 | CCC(CC)n1c(=O)ccc2cnc(Nc3ccc(N4CCN(C)CC4)cc3)nc21 | 155 to 157
27 | C[C@@H](NC(=O)c1csc(-c2ccc(C(F)(F)F)cc2)n1)[C@](O)(Cn1cncn1)c1ccc(F)cc1F | 167 to 168
28 | N#Cc1nn(-c2c(Cl)cc(C(F)(F)F)cc2Cl)c(N)c1-c1cccnc1 | 265 to 267
29 | COc1cc(C(C)C)c2c(c1)S(=O)(=O)N(COc1cc(C#N)nn1-c1ccc(Cl)cc1)C2=O | 135
30 | ClCCn1c(-c2ccccc2)nc2cc(CN3CCN(C(c4ccccc4)c4ccccc4)CC3)ccc21 | 174 to 180
31 | CCS(=O)(=O)Nc1cc(C)cc(Cc2c[nH]cn2)c1C | 167 to 169
32 | CNCC(O)c1cc(C)oc1C (stereo unspecified) | 76 to 77
33 | N#Cc1nc2ncccc2[nH]1 | 200
34 | COc1cc(Nc2nccc(-c3ccc(N4CCN(C)[C@@H](C)C4)nc3)n2)cc(OC)c1OC | 92 to 93
35 | C=Cc1cnc(-c2ccccn2)nc1 | 103
36 | NS(=O)(=O)c1ccc(Cl)cc1NC(=O)Nc1cccc(C(F)(F)F)c1 | 163 to 165
37 | CC1(C)Oc2ccc(C#N)cc2C(Nc2ccc(=O)[nH]c2)C1O (stereo unspecified) | 285 to 287
38 | O=c1[nH]c2ccc(-c3cccc([N+](=O)[O-])c3)cc2n1Cc1ccccc1 | 202 to 203
39 | COc1ccc(-c2nc(N3CCOCC3)c3c(C)c(C#N)sc3n2)cc1OC | 194 to 196
40 | CCc1cn(C2CC(O)C(CNC(=O)C(C)Sc3ccc(Cl)cc3Cl)O2)c(=O)[nH]c1=O (stereo unspecified) | 218 to 220
41 | O=c1cc(Cl)cnn1CC1CCCCC1 | 81.6 to 81.8
42 | Cc1c(NC(=O)c2cccc(OCC(=O)OC(C)(C)C)c2)c2ccccn2c1C(=O)c1ccc(NC(=O)C(F)(F)F)c(C(=O)OCc2ccccc2)c1 | 200
43 | CCOCc1nc2c(N)nc3cc(Cl)ccc3c2n1CC(C)(C)O | 238 to 240
44 | CC(=O)Nc1ccc2c(c1)NC(=O)C2CC(C)C (stereo unspecified) | 214 to 216
45 | O=C(O)c1ccccc1NC(=O)[C@@H]1CCCN1C(=O)[C@@H]1C[C@@H](OCc2ccccc2)CN1C(=O)Nc1ccc2ccccc2c1 ({βNA-CO}-[Hyp](Bn)-Pro-[2Abz]-OH) | 156
46 | CCCC[C@H]1C(=O)CC[C@@]2(C)CC[C@@H]3C[C@]12OC3(C)C | 64 to 66
47 | O=CN(O)CCCP1(=O)ON2CCN(O1)OP(=O)(CCCN(O)C=O)O2 (stereo unspecified) | 112 to 118
48 | COc1ccc2[nH]c(S(=O)Cc3cc(N4CCCCC4)c(Br)cn3)nc2c1 (stereo unspecified) | 114 to 118
49 | CC(CCCC(C(=O)O)C(=O)O)C1CC=C2C3=C(CCC21C)C1(C)CCC(O)C(C)(C)C1CC3 (stereo unspecified) | 188 to 190
50 | CCOc1ccc(OCC)c(C=O)c1 | 60 to 61

The remaining lines, values ahead:

Row | melting point [°C] | Structure (SMILES)
51 | 190 to 192 | COc1ccc(-c2csc(Nc3ccc(C)cn3)n2)cc1OC
52 | 102 to 104 | OC12N=C(CSCc3ccccc3)SC1Cc1cc(Cl)ccc12 (stereo unspecified)
53 | 62 to 64 | Cc1ccc(F)c(OCCCC(=O)O)c1
54 | 51 to 53 | CCCC1C(=O)Oc2c(Oc3ccccc3Cl)cccc21 (stereo unspecified)
55 | 180 to 181 | O=C(CCCl)c1ccc2c(c1)Cc1cc(C(=O)CCCl)ccc1O2
56 | 105 to 107 | CCOC(=O)c1cc(-c2csc(-c3cccnc3)n2)[nH]n1
57 | 178 | CCN(CC)C(=CC(=O)OC)n1c(=O)n2nc(C(=O)OC)c(N(CC)CC)c2c2ccccc21
58 | 128 to 129 | O=C1c2ccccc2C(=O)N1CC(=CBr)c1ccccc1
59 | 107 to 108 | CNC(=O)c1cc(-c2ccc(OC)cc2)nn(CC2CCCC2)c1=O
60 | 229 | O=C(/C=C/c1ccc2ccccc2c1)Nc1cc(Cl)c(Cl)cc1S(=O)(=O)O
61 | 269 to 271 | CCc1[nH]c(=O)[nH]c1C(=O)c1ccc(C#N)cc1
62 | 99 to 100 | Cc1cccc(C2=NN(C(=O)c3cccnc3)CC2)c1
63 | 170 to 172 | CCN(CC)C(=O)c1cc(-c2ccccc2)c(=O)n2c1-c1ccccc1C2
64 | 158 to 160 | Cc1ccc(S(=O)(=O)ON=C2CCCc3c2ccc(OCc2ccccc2)c3N(C)C(=O)OCc2ccccc2)cc1
65 | 116 to 123 | COC(=O)c1ccc2c(c1)Sc1ccccc1CC2Br (stereo unspecified)
66 | 184 to 186 | O=C(NCc1cccc(Cl)c1)c1sc2ccc(Cl)cc2c1O
67 | 82 to 84 | Oc1cccc(O)c1CCC(F)(F)F
68 | 168 to 170 | COc1ccc(C(Sc2cc(Oc3ccccc3)ccc2N)C(O)C(=O)O)cc1Cl (stereo unspecified)
69 | 98 to 100 | CCOC(=O)c1cnc(C)nc1-c1ccc(OC)c(OC)c1
70 | 92 to 93 | CCOC(=O)CC(=O)C=Cc1cccc([N+](=O)[O-])c1
71 | 120 to 122 | OCCCC(c1ccccc1)C(O)(c1ccccc1)c1ccccc1 (stereo unspecified)
72 | 169 to 171 | NC(=O)C(O)c1cc(F)cc2cccnc12 (stereo unspecified)
73 | 149 to 154 | COc1ccc2oc(-c3ccc(O)cc3C)cc2c1
74 | 187 | COc1ccc(C(=O)Nc2ccc3ccc(-c4ccccc4)nc3n2)cc1
75 | 265 to 268 | COC(=O)c1ccc2oc3c(c(=O)c2c1)CCC3=Cc1ccc(N)cc1
76 | 284 | Cc1nc(NC(=N)N)sc1C(=O)Nc1cccc(OCC(=O)O)c1

Row | melting point [°C] | Structure (SMILES)
77 | 72 to 74 | CC(=O)CCCCCCCC(=O)c1ccc(OCc2ccccc2)c(OCc2ccccc2)c1
78 | 255 to 258 | Cc1cc2c(F)c(Oc3cc(Cl)nc(N)n3)ccc2[nH]1
79 | 98.7 to 100 | CCCCCCCOc1ccc(-c2ccc(OCc3ccccc3)c(F)c2)cc1F
80 | 185 to 190 | CCCCCc1nc2ccc(C(=O)O)cc2c(=O)o1
81 | 88 | COc1ccc2ccccc2c1CCCC(=O)O
82 | 136 to 137 | Cc1cc2nc(/C=C/c3ccccc3)n(-c3ccccn3)c2cc1C
83 | 172 to 178 | Cc1ccc(OCC(CO)NC(C)(C)C)c(-c2ccc(NN)nn2)c1 (stereo unspecified)
84 | 161 to 162 | COc1ccc(S(=O)(=O)C(CCCc2ccccc2)CC(=O)O)cc1OC (stereo unspecified)
85 | 188 to 190 | COc1cc(Nc2nc3cccc(-c4ccc(C)c(N)c4)c3o2)cc(OC)c1OC
86 | 195 to 202 | CC(CC(=O)O)C(=O)c1ccc(C(=O)C(C)CC(=O)O)cc1 (stereo unspecified)
87 | 265 to 270 | CCOC(=O)c1[nH]c2cc(F)ccc2c1NCCC(=O)c1ccccc1
88 | 217 | Cc1nc2ccccn2c1Cc1ccc(C(=O)O)cc1
89 | 113 to 115 | COc1cccc(-c2cn(C)cc(-c3cccc(C(F)(F)F)c3)c2=O)c1
90 | 153 to 154 | O=C1COc2cc(SCc3ccccc3)ccc2N1
91 | 254 | O=C(Nc1cccc(F)n1)Nc1cccc2c1C1CCCCN1C2=O (stereo unspecified)
92 | 69 | CCCCCCCCCCCC(=O)c1c(-c2ccccc2)[nH]n(-c2ccccc2)c1=O
93 | 124 to 125 | CCCNC(=C1Sc2ccccc2C1=O)c1ccccc1
94 | 104 to 105 | CCN1C=C(C(=O)c2c(C)nn3ccccc23)CCC1
95 | 222 to 224 | c1ccc(-c2cc3ccncc3[nH]2)cc1
96 | 63 to 64 | Cc1cc(CCCCCCCCOc2ccc(C3=NCCO3)cc2Cl)on1
97 | 149 to 151 | COC(=O)c1c(Sc2nc(OC)cc(OC)n2)cccc1C(C)=O
98 | 130 to 131 | COC(=O)c1ccc2oc(CCCCc3cc4cc(C(=O)OC)ccc4o3)cc2c1
99 | 182 to 183 | COc1cn(-c2ccc(N3CCOCC3)c(F)c2F)nc(-c2ccnn2-c2ccccc2)c1=O
100 | 101 to 102 | CNc1cc(OC)c(C(=O)NC2CCN(Cc3ccccc3)C2)cc1Cl (stereo unspecified)
101 | 115 to 116 | CCCCC1=C(c2ccc(F)cc2)C(=NO)CC1
